Source: publication PMC12564302, “Discovery of N-Hydroxypyridinedione-Based Inhibitors of HBV RNase H: Design, Synthesis, and Extended SAR Studies” (International Journal of Molecular Sciences, 2025)
Converted amounts (≈) assume the structure as drawn. “Also recorded” adds a separate entry of the source. Read-outs that look alike come from different tables or passages of the source.

Columns and labels:
[1] = system: HBV replication in HepDES19 cells; assay: qPCR HBV replication inhibition assay; format: cell-based, HBV genotype D
Method: (§1) HepDES19 cells are a HepG2 cell-line derivative that has been stably transfected with an HBV genotype D genome containing a tetracycline repressible promoter. HepDES19 cells were maintained on collagen-coated plates in Dulbecco’s modified Eagle’s medium (DMEM/F12) (Cytiva Life Sciences, Marlborough, MA, USA) supplemented with 10% fetal bovine serum (FBS), streptomycin (100 µg/mL), and penicillin (100 IU/mL), and incubated at 37 °C with 5% CO2 and saturating humidity. Cells were cultured with 1 µg/mL tetracycline to inhibit the expression of the stably integrated HBV genome, and HBV replication was activated upon removal of tetracycline from the culture medium.
HBV replication inhibition in HepDES19 cells was assessed using a strand-preferential quantitative PCR assay as previously described. HepDES19 cells were seeded in 96 well plates at 4 × 10^4 cells/well for 48 h followed by the addition of serial diluted compound with a final concentration of 1% DMSO for 72 h, after which cells were lysed, and qPCR was performed as described in Li et al.. Effective concentration 50% (EC50) values were calculated from data for the (+) polarity DNA strand data using GraphPad Prism version 10’s four-parameter log (inhibitor) versus response algorithm, with the bottom value set to zero. Three or more replicate assays were performed on different days.

MTS cytotoxicity assay = format: cell-based; settings: human, HepDES19 cells, pH 7.4
Method: as §1
Cell viability was assessed using the CellTiter 96^TM Aqueous Non-Radioactive Cell Proliferation assay (MTS) (Promega, Madison, WI, USA) as described previously. HepDES19 cells were seeded in 96 well plates at 1 × 10^4 cells/well for 48 h. Cells were then incubated with serial diluted compound, with a final concentration of 1% DMSO, for 72 h. Following compound incubation, background absorbance values were subtracted, and the data were converted into percent cell viability. The cytotoxic concentration 50% (CC50) values were calculated using GraphPad Prism’s four-parameter log (inhibitor) versus response algorithm, with the bottom value set to zero. Three or more replicate assays were performed on different days.

Solubility limit assay = format: physicochemical; settings: DMEM-F12 without phenol red with 10% FBS, pH 7.4, plasma or biological fluid, kinetic from dmso stock
Method: Solubility limits of compounds were tested as previously reported in DMEM-F12 without phenol red (Gibco, Grand Island, NY, USA) but with the media supplemented with 10% FBS (pH 7.4) to mimic cell culture experiments. In a 384-well optically clear plate, compounds were serially diluted in pH 7.4 buffer (upper limit 200 µM, DMSO 1%) then read at 620 nm. Solubility limits were determined by plotting compound concentration (µM) against optical density (OD) and identifying an inflexion point. The inflexion point is defined by a substantial increase in OD brought on by increasing turbidity, and the compound concentration at this point is known as the solubility limit. Each compound had at least two replicate assays performed on different days.

[2] = Parallel artificial membrane permeability assay; format: in vitro ADME; settings: PAMPA, pH 7.4, PAMPA
Method: The evaluation of apparent passive permeability (Papp) at pH 7.4 was performed using a donor/acceptor cassette (Innovative Laboratory Products, Phoenix, AZ, USA and Sigma Aldrich, Burlington, MA, USA), which simulates the apical and basolateral sides of the small intestine epithelium, as previously described. An artificial membrane made of 1% w/v lecithin/dodecane was applied to the poly (vinylidene fluoride) (PVDF) membrane filter and allowed to dry. Following drying, compounds (200 µM) were diluted in buffer at pH 7.4 and added to the donor side of the cassette. The same pH buffer was added on the acceptor side of the cassette, after which it was assembled and incubated at room temperature with shaking at 250 rpm for 2 h, before reading the absorbance of 100 µL from the acceptor well on a plate reader between 230 and 700 nm. The Papp (cm/s) values for compounds were determined by normalizing to the compound absorbance at equilibrium using the peak absorbance point for each compound, buffer volume, incubation time, and membrane porosity. Two or more replicate assays were conducted on different days.

[3] = Hepatitis B virus, HepDES19, 72 h, pH 7.4, HepDES19 cells, 72 h, (+) polarity DNA strand, pH 7.4, read-out: EC50
[4] = pH 7.4, DMEM-F12 with 10% FBS, 1% DMSO, upper limit 200 µM, read-out: Solubility Limit
[5] = pH 7.4, read-out: Solubility Limit Interpretation
[6] = pH 7.4, 200 µM, 2 h, read-out: Papp
[7] = pH 7.4, read-out: Papp Interpretation
[8] = Hepatitis B virus, HepDES19, 72 h, experimental potencies of the E/Z mixture, read-out: EC50 mix

Molecule	anti-HBV activity (in words) ([1]; HepDES19 cells)	EC50 ([1]; HepDES19 cells, 72 h, (+) polarity DNA strand, pH 7.4, read-out: EC50) [µM]	EC50 [1, 3] [µM]	CC50 at 72 h (MTS cytotoxicity assay) [µM]	solubility (Solubility limit assay; [4]) [µM]	solubility (Solubility limit assay; [5]) [µM]	Papp at 2 h, 200 µM [2, 6] [×10⁻⁶ cm/s]	Papp at 2 h, 200 µM [2, 7] [×10⁻⁶ cm/s]	EC50 [1, 8] [µM]
2-amino-4-(2-bromophenoxy)-6-iminopyrimidin-1(6H)-ol [Compound 44]	inactive against HBV	> 100							
CC(=Nc1ccccc1F)c1c(C)cc(=O)n(O)c1O [Compound 21, 5-(1-((2-fluorophenyl)imino)ethyl)-1,6-dihydroxy-4-methylpyridin-2(1H)-one]			2.2 ± 0.5	86.3 ± 10.2	> 200	> 100	5.72	> 1	
CC(=Nc1ccccc1Cl)c1c(C)cc(=O)n(O)c1O [Compound 23, 5-(1-((2-chlorophenyl)imino)ethyl)-1,6-dihydroxy-4-methylpyridin-2(1H)-one]			2.42 ± 1	76.8 ± 5.9	> 200	> 100	2.83	> 1	
CC(=Nc1ccc(Cl)c(Cl)c1)c1c(C)cc(=O)n(O)c1O [Compound 24, 5-(1-((3,4-dichlorophenyl)imino)ethyl)-1,6-dihydroxy-4-methylpyridin-2(1H)-one]			2.17 ± 0.8	69	> 200	> 100	2.24	> 1	
CC(=Nc1ccccc1Br)c1c(C)cc(=O)n(O)c1O [Compound 25, 5-(1-((2-bromophenyl)imino)ethyl)-1,6-dihydroxy-4-methylpyridin-2(1H)-one]			4.53 ± 2.5	45.8 ± 4.6	> 200	> 100	3.12	> 1	
CC(=Nc1ccc(F)cc1F)c1c(C)cc(=O)n(O)c1O [Compound 26, 5-(1-((2,4-difluorophenyl)imino)ethyl)-1,6-dihydroxy-4-methylpyridin-2(1H)-one]			2.83 ± 1.1	54.1 ± 27.7	> 200	> 100	3.81	> 1	
CC(=Nc1cc(F)ccc1F)c1c(C)cc(=O)n(O)c1O [Compound 27, 5-(1-((2,5-difluorophenyl)imino)ethyl)-1,6-dihydroxy-4-methylpyridin-2(1H)-one]			1.97 ± 0.6	58.4 ± 21.9	> 200	> 100	2.4	> 1	
CC(=Nc1c(F)cccc1F)c1c(C)cc(=O)n(O)c1O [Compound 28, 5-(1-((2,6-difluorophenyl)imino)ethyl)-1,6-dihydroxy-4-methylpyridin-2(1H)-one]			2.73 ± 1	52.6 ± 20.5	> 200	> 100	2.48	> 1	
CC(=Nc1ccc(F)c(Cl)c1)c1c(C)cc(=O)n(O)c1O [Compound 29, 5-(1-((3-chloro-4-fluorophenyl)imino)ethyl)-1,6-dihydroxy-4-methylpyridin-2(1H)-one]			3.25 ± 1	70.8 ± 18.4	> 200	> 100	3.65	> 1	
CC(=NOCc1ccc(Cl)c(Cl)c1)c1c(C)cc(=O)n(O)c1O [Compound 30, 5-(1-(((3,4-dichlorobenzyl)oxy)imino)ethyl)-1,6-dihydroxy-4-methylpyridin-2(1H)-one]			1.77 ± 0.7	49.7 ± 16.4	> 200	> 100	1.59	> 1	1.77 ± 0.7
CC(=NOCc1ccc(Cl)cc1Cl)c1c(C)cc(=O)n(O)c1O [Compound 31, 5-(1-(((2,4-dichlorobenzyl)oxy)imino)ethyl)-1,6-dihydroxy-4-methylpyridin-2(1H)-one]			0.5	34.4 ± 14.1	> 200	> 100	4	> 1	0.53 ± 0.3
CC(=NOCc1ccccc1I)c1c(C)cc(=O)n(O)c1O [Compound 32, 1,6-dihydroxy-5-(1-(((2-iodobenzyl)oxy)imino)ethyl)-4-methylpyridin-2(1H)-one]			1.77 ± 0.5	54.1 ± 13.7	100 (≈ 41.4 µg/mL)	> 100	3.29	> 1	1.77 ± 0.5
CC(=NCc1ccccc1Br)c1c(C)cc(=O)n(O)c1O [Compound 33, 5-(1-((2-bromobenzyl)imino)ethyl)-1,6-dihydroxy-4-methylpyridin-2(1H)-one]			8.45 ± 3.5	51.3 ± 20.9	> 200	> 100	1.22	> 1	
CC(=NCc1cccc(Br)c1)c1c(C)cc(=O)n(O)c1O [Compound 34, 5-(1-((3-bromobenzyl)imino)ethyl)-1,6-dihydroxy-4-methylpyridin-2(1H)-one]			13.6 ± 2.8	22.6 ± 16.7	> 200	> 100	1.11	> 1	
CC(=NCc1ccc(Br)cc1)c1c(C)cc(=O)n(O)c1O [Compound 35, 5-(1-((4-bromobenzyl)imino)ethyl)-1,6-dihydroxy-4-methylpyridin-2(1H)-one]			15 ± 10.7	44.4 ± 34.4	> 200	> 100	3.15	> 1	
CC(=NCc1ccccc1Cl)c1c(C)cc(=O)n(O)c1O [Compound 36, 5-(1-((2-chlorobenzyl)imino)ethyl)-1,6-dihydroxy-4-methylpyridin-2(1H)-one]			2.77 ± 0.8	52.7 ± 29.3	167 (≈ 51.1 µg/mL)	> 100	3.04	> 1	
CC(=NCc1cccc(Cl)c1)c1c(C)cc(=O)n(O)c1O [Compound 37, 5-(1-((3-chlorobenzyl)imino)ethyl)-1,6-dihydroxy-4-methylpyridin-2(1H)-one]			4.73 ± 4.4	34 ± 23	> 200	> 100	5.41	> 1	
CC(=NCc1ccc(Cl)cc1)c1c(C)cc(=O)n(O)c1O [Compound 38, 5-(1-((4-chlorobenzyl)imino)ethyl)-1,6-dihydroxy-4-methylpyridin-2(1H)-one]			18.9 ± 8.4	22.9 ± 7	> 200	> 100	3.07	> 1	
CC(=NOCc1ccccc1Cl)C1C(=O)NC(=O)NC1=O [Compound 45, 5-(1-(((2-chlorobenzyl)oxy)imino)ethyl)pyrimidine-2,4,6(1H,3H,5H)-trione]	inactive; also recorded: lack of inhibition; also recorded: lack of activity		100	100					
